Earlier results, collected in US20080195230A1, “Pericardial tissue sheet” (priority 2007, published 2008).

Experiments:
3T3 fibroblasts = settings: in vitro
[1] = test system: Chinese hamster ovary (CHO-K1) cells; settings: in vitro
rabbit = settings: i.v.

| Compound | cytotoxicity compared with glutaraldehyde (3T3 fibroblasts) | genotoxicity (clastogenic response) [1] | LD50 (rabbit) | solubility in organic solvents (alcohol, acetic acid, acetone) | solubility in water (water) |
| --- | --- | --- | --- | --- | --- |
| COC(=O)C1=CO[C@@H](O)[C@@H]2C(CO)=CC[C@H]12 [genipin] | substantially less cytotoxic than glutaraldehyde | does not cause clastogenic response |  |  |  |
| Deoxycholic acid |  |  | 15 mg/kg | soluble in alcohol and to a lesser extent acetone and glacial acetic acid | sparingly soluble in water |
